Measured values as given in patent US5726156A, “Cytokine regulatory agents and methods of use in pathologies and conditions associated with altered cytokine levels” (Trega Biosciences, Inc., priority 1995, dated 1998).

How the values were obtained:
[1] = system: IL-1β-induced hyperalgesia; experiment: IL-1β-induced hyperalgesia, paw pressure test; type: in vivo, rats; set-up: dose or concentration left out as unconfirmed; details: IP 20 min before IL-1β intraplantar; 2 hr after IL-1
Protocol: These experiments were performed using a modification of the methods described by Poole etal., Br. J. Pharmacol. 106:489-492 (1992); Foilenfant et al., Br. J. Pharmacol. 98:41-43 (1989); and Randall and Sellito, Arch. Internatl. Pharmacodyn. 111:409-419 (1957), each of which is incorporated herein by reference. Adult male Sprague-Dawley rats (175-275 g) were tested for hyperalgesia by a paw pressure technique using variable pressure instrumentation (IITC Life Sciences; Woodland Hills, Calif.). Rats were acclimated to the housing environment and were handled for three days prior to beginning a training session. On the day before the hyperalgesia experiments was to begin, each rat was placed into a sock and two variable paw pressure tests were performed 15 min apart. […] Approximately 5-10% of the rats were non-responders and were eliminated from further experiments.
Animals that responded to the paw pressure were pretreated by IP injection of various concentrations of EX-2 in a volume of 1 ml/kg (treated) or saline, alone (control). After 20 min, 100 μl of IL-1β (1U/100 μl) was administered to rats via intra plantar injection. Two hr after IL-1 administration, rats were subjected to two additional paw pressure tests and the increase in mm Hg of pressure that could be applied to the EX-2-treated rats as compared to the control rats was determined.

[2] = system: kidney (cyclosporine-induced nephrotoxicity); experiment: Cyclosporine-induced nephrotoxicity; type: in vivo, rats
Protocol: In the first study, male Sprague-Dawley rats (n=43) with a weight range of 240-290 g at the initiation of the cyclosporine A (CsA) treatment were divided into 4 weight matched groups. The groups were as follows: (1) Control: no CsA, no EX-2, treatment only with CsA vehicle (PBS) PO and EX-2 vehicle (also PBS) IP; (2) CsA: treatment with CsA (50 mg/kg in PBS administered PO daily at 0830 hr for 9 days) and IP injections of PBS (Ex-2 vehicle); (3) CsA and 50 μg: CsA treatment identical to group 2 with the addition of EX-2 (50 μg/kg IP administered daily at 0800 and 1700 hr in EX-2 vehicle); and (4) CsA and 500 μg: CsA treatment identical to groups 2 and 3, and EX-2 treatment protocol similar to group 3 except that the dose of EX-2 was 500 μg/kg BW. […] Renal blood flow was determined by the inulin extraction technique. […]
In the second study, male Sprague-Dawley rats (n=3l) with a weight range of 240-290 g at the time of initiation of the cyclosporine treatment were divided into 4 weight-matched groups. […] Renal hemodynamics were determined and extracellular fluid volumes were also assessed.
In the second study, where extracellular fluid volumes (ECF) were measured, there were no differences in ECF among control and treatment groups (27.6±1.9 in control, 27.5±1.7 in CsA and vehicle, 26.2±0.9 in CsA +200 μg/kg EX-2, and 25.7±1.4% in CsA +500 μg/kg EX-2). […]

[3] = system: STZ diabetes, blood glucose; experiment: Streptozotocin-induced diabetes; type: in vivo, rats; details: 150 μg/kg every 8 hr for 72 hr; STZ 65 mg/kg iv
Protocol: Male Sprague-Dawley rats were given 65 mg/kg of streptozotocin (STZ) intravenously through the tall vein. Rats were divided into two groups. The first group was administered EX-2, 150 μg/kg every 8 hr for 72 hr and the second group was a control. Blood samples were withdrawn under ether anesthesia every 8 hr for the first 72 hr, then every 12 hr or 24 hr until the end of the observation period. Plasma samples were assayed for glucose using a glucose assay kit (Trinder, Sigma Chemical Co.). As shown in Table VI below EX-2 effect a 72% reduction in blood glucose levels.

[4] = Reduction in body weight, Zucker fa/fa and Fa/+ rats; type: in vivo
Protocol: Adult Zucker fatty rats (fa/fa; 325-350 g) or non-obese Zucker rats (Fa/+; 250-275 g) each were divided into two groups. One group each of fa/fa and Fa/+ rats received intraperitoneal (ip) injections of 250 μg/kg EX-2, 3×/day, for 86 days, followed by 2×/day treatments for an additional 29 days. The other group of fa/fa and Fa/+rats received saline on the same schedule.
Administration of EX-2 caused a significant decrease in the weight gain of fa/fa and of Fa/+ rats (see FIG. 4). Specifically, saline treated fa/fa rats gained about 360 g during the […], whereas EX-2 treated fa/fa rats only gained 275 g, representing a 24% decrease in weight gain. […] In Fa/+ rats, the decreased weight gain was more modest, but again correlated to fat mass rather than lean muscle mass.
In other experiments, fa/fa rats received 0.5-10 mg/kg EX-2, 2×/day, for 14 days (1-20 mg/day). […] This weight loss correlated with […] consumption by the EX-2 treated rats as compared to the controls.

**Q.** With “Ac-Nle-Gln-His-(D)Phe-Arg-(D)Trp-Gly-NH2 [EX-2]” as the substance, how does the “Reduction in IL-1-induced Hyperalgesia (increase in tolerated paw pressure)” value [1] read?
**A.** 125%

**Q.** What about the renal blood flow ([2]; CsA-treated rats, EX-2 IP twice daily) of the same substance?
**A.** improved blood flow to values not different from control

**Q.** What about the GFR ([2]; compared to CsA and vehicle controls, in both studies) of the same substance?
**A.** significantly increased GFR

**Q.** And the “% Reduction, STZ Diabetes, Blood Glucose (mg/dl)” value [3]?
**A.** 72%

**Q.** What about the decreased weight gain ([4]; Fa/+ (non-obese) rats, 250 μg/kg ip) of the same substance?
**A.** more modest

**Q.** What about the “epididymal fat pad weight” value ([4]; fa/fa rats, 250 μg/kg ip) of the same substance?
**A.** decreased epididymal fat pad weight

**Q.** And the body weight gained ([4]; fa/fa rats, 250 μg/kg ip 3×/day then 2×/day, 105 day treatment, saline about 360 g)?
**A.** 275 g

**Q.** And the “decrease in weight gain” value ([4]; fa/fa rats, 250 μg/kg ip, vs saline treated)?
**A.** 24%

**Q.** What about the “decrease in body weight” value ([4]; fa/fa rats, 20 mg EX-2/day (10 mg/kg 2×/day), 14 days) of the same substance?
**A.** ~10%

**Q.** What about the “rate of weight gain” value ([4]; fa/fa rats, 0.5-10 mg/kg 2×/day, 14 days, each group) of the same substance?
**A.** decreased rate of weight gain
